In US5071750A, “Enzymatic process for preparing N-acetylneuraminic acid” (Forschungszentrum Juelich GmbH, priority 1989, dated 1991):

Key:
[1] = target: T1, N-acylglucosamine-2-epimerase (E.C. 5.1.3.8) (Sus scrofa, UniProt P17560); experiment: relative activity of the epimerase (isomerization of GlcNAc to ManNAc) in the presence of pyruvate or Neu5Ac; assay type: biochemical; conditions: as a function of the concentration of the inhibiting substance (FIG. 2A)
T1 sequence (P17560 1-402): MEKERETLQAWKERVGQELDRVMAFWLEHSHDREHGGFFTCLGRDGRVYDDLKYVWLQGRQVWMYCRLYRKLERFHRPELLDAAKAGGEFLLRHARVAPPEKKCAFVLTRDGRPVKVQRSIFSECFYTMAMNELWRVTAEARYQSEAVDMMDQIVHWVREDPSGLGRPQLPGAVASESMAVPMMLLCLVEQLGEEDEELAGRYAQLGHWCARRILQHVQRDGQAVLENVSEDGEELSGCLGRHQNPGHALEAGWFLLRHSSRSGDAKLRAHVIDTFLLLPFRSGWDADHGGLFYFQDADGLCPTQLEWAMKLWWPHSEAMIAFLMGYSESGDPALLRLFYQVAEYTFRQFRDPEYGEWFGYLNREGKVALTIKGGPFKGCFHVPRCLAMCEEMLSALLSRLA

[2] = target: N-acetylneuraminic acid pyruvate lyase (E.C. 4.1.3.3) (Escherichia coli, UniProt P0A6L4); experiment: reverse reaction (cleavage of Neu5Ac) by the lyase in the presence of pyruvate; assay type: biochemical; conditions: considerable excess of pyruvate in comparison with the Neu5Ac formed (FIG. 4)
Chain of N-acetylneuraminic acid pyruvate lyase (E.C. 4.1.3.3) (P0A6L4 whole entry): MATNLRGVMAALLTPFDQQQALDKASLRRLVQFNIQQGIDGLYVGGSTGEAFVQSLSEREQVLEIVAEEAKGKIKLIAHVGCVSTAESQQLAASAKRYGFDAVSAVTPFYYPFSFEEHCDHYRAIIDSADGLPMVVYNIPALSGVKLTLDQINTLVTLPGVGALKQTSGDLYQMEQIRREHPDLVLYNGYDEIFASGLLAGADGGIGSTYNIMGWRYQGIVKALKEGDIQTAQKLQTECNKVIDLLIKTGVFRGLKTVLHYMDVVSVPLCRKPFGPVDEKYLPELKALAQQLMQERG
From the text: Because of the large excess of pyruvate, subsequent conversion of the ManNAc to Neu5Ac is promoted.
The Neu5Ac formed is, in accordance with the precision of the equilibrium, subject to more or less strong renewed cleavage by the reverse reaction. Although this reaction is inhibited by an excess of pyruvate (see FIG. 4), it appears advantageous continuously to pass reaction medium from the EMR over an ion exchange column and recycle the rest into the reactor. Alternate use of two columns is advantageous.

| Structure (SMILES) | inhibition of the epimerase-catalysed isomerization of GlcNAc to ManNAc [1] | inhibition of the reverse reaction of Neu5Ac formation [2] |
| --- | --- | --- |
| CC(=O)N[C@H]1[C@H]([C@H](O)[C@H](O)CO)OC(O)(C(=O)O)C[C@@H]1O (stereo partly drawn) [N-acetylneuraminic acid] | inhibiting effect |  |
| CC(=O)C(=O)O [pyruvic acid] | increasingly inhibited | strongly inhibited |
